Key:
[1] = very large doses; cited from earlier work
[2] = system: Enterobius vennicularis (pinworm); experiment: PpIX accumulation on exposure to exogenous ALA, pinworm; conditions: exposed to exogenous ALA
C. albicans lesions = experiment: PpIX fluorescence of intradermal C. albicans lesions in hairless mice given ALA; type: in vivo, mouse; conditions: 240 mg/kg ALA intraperitoneal, 3 hours
Procedure: The procedure of Giger et al. Infection and Immunity 19 (2) 499-509 (February 1978) was used with the following modifications. A clinical specimen of C. albicans was replated in blood agar so it was actively growing and left at room temperature for 72 hours. The sample was suspended in TSB to McFarland 0.5 turbidity after which a 1.0 ml sample was inoculated into an aerobic culture bottle and left shaking for 24 hours on a 37° C. rotor shaker. A 10 ml sample was withdrawn and centrifuged at […] for 10 minutes to separate the cells from the media. The supernate was discarded and the pellet resuspended in 10 ml of TSB. Serial dilusions (10^−1 to 10^−5) were made in and replicated twice on agar and left to incubate for two days at 37° C. […]
Three hours prior to their sacrifice, the mice were given 240 mg/kg ALA (10 mg/ml) by intraperitoneal injection, with the exception of mouse #3 which was used as a control. Fluorescence emission spectra on the live mice were taken every 15 minutes (mouse #1 readings every 20 minutes) for 3 hours after injection on each lesion, and at various control areas of the mice—neck skin flap and lateral side opposite the lesion on mouse 5. […] The frozen lesions were sectioned and slides were prepared for spectral analysis or fluorescence microscopy, H and E staining for histology, and Grocott silver stains for fungi identification.

P. yoelii = experiment: ALA-induced fluorescence within erythrocytes parasitized by P. yoelii, mice given ALA
[3] = 250 mg/kg ALA intraperitoneal, heavily parasitized mice
[4] = ALA injected into infected mice

For NCC(=O)CCC(=O)O [ALA, 5-Amino-4-oxopentanoic acid], the “effect on motor nerve conduction velocity” value [1] is listed as “transient decrease in motor nerve conduction velocity”, the “accumulation of fluorescing concentrations of PpIX” value [2] is listed as “ALA-induced fluorescence” and the “accumulation of photosensitizing concentrations of PpIX” value [2] is listed as “ALA-induced photosensitization”. The “PpIX accumulation in primary and secondary lesions” value (C. albicans lesions) was “increased PpIX accumulation relative to the control mice”, the “protoporphyrin fluorescence of pellet and supernatant after saponin hemolysis” value (P. yoelii; 250 mg/kg ALA IP, 4 hours, excitation 410 nm, emission 635 nm) was “Protoporphyrin fluorescence was detected only in Plasmodial pellet derived from infected mice given ALA” and the “fluorescence microscopy of blood/spleen cells” value (P. yoelii; 250 mg/kg ALA intraperitoneal) was “Red fluorescence developed within parasitized erythrocytes”. The “fluorescence flow cytometry of peripheral blood and spleen erythrocytes” value (P. yoelii; [3]) was “developed red fluorescence”, the “spectrophotofluorometry of blood and spleen cell pellets” value (P. yoelii; [3]) was “Protoporphyrin was the only fluorophore that was identified” and the “erythrocyte fluorescence by flow cytometer (accumulation of PpIX)” value (P. yoelii; 250 mg/kg ALA intraperitoneal, tail blood at intervals) was “Only infected mice given ALA developed fluorescence in their erythrocytes”. The “PpIX accumulation in non-infected erythrocytes and leukocytes” value (P. yoelii; [4]) was “significant concentrations of PpIX did not accumulate”, the “PpIX accumulation in plasmodia within erythrocytes” value (P. yoelii; [4]) was “accumulated in many of the plasmodia” and the “accumulation of fluorescing concentrations of PpIX” value (P. yoelii; exposed to exogenous ALA, Example 10 list) was “ALA-induced fluorescence”.
